According to article PMC6934184, “Selective DNA-PKcs inhibition extends the therapeutic index of localized radiotherapy and chemotherapy” (The Journal of Clinical Investigation, 2019):

Target: T1, DAPK2 (Homo sapiens, UniProt Q9UIK4)
T1 construct: purchased Thermo Fisher Scientific (Life Technologies) SelectScreen
Test: SelectScreen LanthaScreen
Format: binding
Settings: read-out: % displacement
Outline: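 SelectScreen broad panel; activity (Z'LYTE, Adapta) plus binding formats. ATP: Km app for CSF1R Z'LYTE; 10 for CAMK1 Adapta. Readout = % per kinase.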

T1 sequence (Q9UIK4 whole entry): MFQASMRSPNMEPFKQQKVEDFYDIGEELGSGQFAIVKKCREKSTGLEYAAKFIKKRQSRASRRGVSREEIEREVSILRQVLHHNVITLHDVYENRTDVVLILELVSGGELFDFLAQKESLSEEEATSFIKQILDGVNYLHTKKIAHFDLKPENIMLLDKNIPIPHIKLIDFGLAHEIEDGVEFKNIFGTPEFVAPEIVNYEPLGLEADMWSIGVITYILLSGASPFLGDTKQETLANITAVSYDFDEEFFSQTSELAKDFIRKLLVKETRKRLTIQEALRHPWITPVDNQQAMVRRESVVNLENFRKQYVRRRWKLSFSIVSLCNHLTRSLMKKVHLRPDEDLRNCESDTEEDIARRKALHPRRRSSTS

SMILES: CN(C(=O)CN1CCOCC1)c1ccc2sc3c(-c4cccc5c(=O)cc(N6CC7CCC(C6)O7)oc45)cccc3c2c1 [NU5455]
- inhibition at 1 µM: 2.9%
